Results as given in patent publication US9296741B2, “Bromodomain inhibitors” (priority 2012, dated 2016).

Key:
[1] = target: human BRD4 first bromodomain (BDI_K57-E168) (Homo sapiens (Human), UniProt O60885); test: TR-FRET bromodomain binding assay, BRD4 first bromodomain
[2] = target: human BRD4 second bromodomain (BDII_E352-M457) (Homo sapiens (Human), UniProt O60885); test: TR-FRET bromodomain binding assay, BRD4 second bromodomain
[3] = system: breast cancer cell line MX-1; test: MX-1 cell line proliferation assay; assay type: cell-based, human; details: Homo sapiens, MX1, 72 h; MX-1 cells, 3-day proliferation, Cell Titer Glo; read-out: Cellular proliferation: EC50
[4] = Rat liver microsome stability assay; assay type: in vitro ADME; details: rat liver microsomes (male Sprague-Dawley), 0.5 μM test compound, pH 7.4, 37° C.; for Stability in rat liver microsomes (t1/2 in minutes): […] microsomal protein; for half-life at 0.5 μM: 0.25 mg/mL microsomal protein, read-out: Stability in rat liver microsomes (t1/2 in minutes)
[5] = Human liver microsome stability assay; assay type: in vitro ADME; details: both sexes, human, microsomes, pH 7.4

Ki [1]	Ki [2]	EC50 [3]	Stability in rat liver microsomes (t1/2 in minutes) [4]	half-life at 0.5 μM [5]	half-life at 0.5 μM [4]	Structure (SMILES)
529 nM	178 nM	860 nM				Cn1cc(-c2cc([N+](=O)[O-])ccc2Oc2ccccc2)c2cc[nH]c2c1=O [Example 2, 6-methyl-4-(5-nitro-2-phenoxyphenyl)-1,6-dihydro-7H-pyrrolo[2,3-c]pyridin-7-one]
		185 nM				Cn1cc(-c2cc(N)ccc2Oc2ccccc2)c2cc[nH]c2c1=O [Example 3, 4-(5-amino-2-phenoxyphenyl)-6-methyl-1,6-dihydro-7H-pyrrolo[2,3-c]pyridin-7-one]
		113 nM	1 min			CCOC(=O)c1ccc(Oc2ccccc2)c(-c2cn(C)c(=O)c3[nH]ccc23)c1 [Example 9, ethyl 3-(6-methyl-7-oxo-6,7-dihydro-1H-pyrrolo[2,3-c]pyridin-4-yl)-4-phenoxybenzoate]
		562 nM				Cn1cc(-c2cc(Cn3cccn3)ccc2Oc2ccccc2)c2cc[nH]c2c1=O [Example 30, 6-methyl-4-[2-phenoxy-5-(1H-pyrazol-1-ylmethyl)phenyl]-1,6-dihydro-7H-pyrrolo[2,3-c]pyridin-7-one]
148 nM	257 nM			16.8 min	25 min	Cn1cc(-c2cc(NC(=O)CC(F)(F)F)ccc2Oc2ccc(F)cc2F)c2cc[nH]c2c1=O [Example 38, N-[4-(2,4-difluorophenoxy)-3-(6-methyl-7-oxo-6,7-dihydro-1H-pyrrolo[2,3-c]pyridin-4-yl)phenyl]-3,3,3-trifluoropropanamide]
112 nM	124 nM			9.7 min	8 min	Cn1cc(-c2cc(NC(=O)C(C)(C)C)ccc2Oc2ccc(F)cc2F)c2cc[nH]c2c1=O [Example 39, N-[4-(2,4-difluorophenoxy)-3-(6-methyl-7-oxo-6,7-dihydro-1H-pyrrolo[2,3-c]pyridin-4-yl)phenyl]-2,2-dimethylpropanamide]
		309 nM				Cn1cc(-c2cc(C(=O)N3CCS(=O)(=O)CC3)ccc2Oc2ccc(F)cc2F)c2cc[nH]c2c1=O [Example 52, 4-{2-(2,4-difluorophenoxy)-5-[(1,1-dioxidothiomorpholin-4-yl)carbonyl]phenyl}-6-methyl-1,6-dihydro-7H-pyrrolo[2,3-c]pyridin-7-one]
		> 3000 nM				Cn1nc(-c2cc(NS(C)(=O)=O)ccc2Oc2ccccc2)c2cc(C(=O)O)[nH]c2c1=O [Example 77, 6-methyl-4-{5-[(methylsulfonyl)amino]-2-phenoxyphenyl}-7-oxo-6,7-dihydro-1H-pyrrolo[2,3-d]pyridazine-2-carboxylic acid]
		887 nM				CN1CCN(CCNC(=O)c2cc3c(-c4cc(NS(C)(=O)=O)ccc4Oc4ccccc4)nn(C)c(=O)c3[nH]2)CC1 [Example 79, 6-methyl-N-[2-(4-methylpiperazin-1-yl)ethyl]-4-{5-[(methylsulfonyl)amino]-2-phenoxyphenyl}-7-oxo-6,7-dihydro-1H-pyrrolo[2,3-d]pyridazine-2-carboxamide]
		32.4 nM				CN(C)S(=O)(=O)c1cnc(OC2CCOC2)c(-c2cn(C)c(=O)c3[nH]ccc23)c1 (stereo not drawn) [Example 110, N,N-dimethyl-5-(6-methyl-7-oxo-6,7-dihydro-1H-pyrrolo[2,3-c]pyridin-4-yl)-6-(tetrahydrofuran-3-yloxy)pyridine-3-sulfonamide]
105 nM	89.1 nM					Cn1cc(-c2cc(C(=O)Nc3ncccn3)ccc2Oc2ccc(F)cc2F)c2cc[nH]c2c1=O [Example 116, 4-(2,4-difluorophenoxy)-3-(6-methyl-7-oxo-6,7-dihydro-1H-pyrrolo[2,3-c]pyridin-4-yl)-N-(pyrimidin-2-yl)benzamide]
2300 nM	486 nM			34 min	36 min	COc1ccc(NC(=O)c2ccc(Oc3ccc(F)cc3F)c(-c3cn(C)c(=O)c4[nH]ccc34)c2)c(OC)n1 [Example 117, 4-(2,4-difluorophenoxy)-N-(2,6-dimethoxypyridin-3-yl)-3-(6-methyl-7-oxo-6,7-dihydro-1H-pyrrolo[2,3-c]pyridin-4-yl)benzamide]
320 nM	169 nM			2 min	4 min	COc1ccc2[nH]cc(CCNC(=O)c3ccc(Oc4ccc(F)cc4F)c(-c4cn(C)c(=O)c5[nH]ccc45)c3)c2c1 [Example 124, 4-(2,4-difluorophenoxy)-N-[2-(5-methoxy-1H-indol-3-yl)ethyl]-3-(6-methyl-7-oxo-6,7-dihydro-1H-pyrrolo[2,3-c]pyridin-4-yl)benzamide]
183 nM	174 nM					COc1cc(CNC(=O)c2ccc(Oc3ccc(F)cc3F)c(-c3cn(C)c(=O)c4[nH]ccc34)c2)cc(OC)c1OC [Example 130, 4-(2,4-difluorophenoxy)-3-(6-methyl-7-oxo-6,7-dihydro-1H-pyrrolo[2,3-c]pyridin-4-yl)-N-(3,4,5-trimethoxybenzyl)benzamide]
238 nM	344 nM					Cn1cc(-c2cc(C(=O)NCCc3ccc4c(c3)OCO4)ccc2Oc2ccc(F)cc2F)c2cc[nH]c2c1=O [Example 132, N-[2-(1,3-benzodioxol-5-yl)ethyl]-4-(2,4-difluorophenoxy)-3-(6-methyl-7-oxo-6,7-dihydro-1 H-pyrrolo[2,3-c]pyridin-4-yl)benzamide]
234 nM	295 nM					Cn1cc(-c2cc(C(=O)NC3CCN(C(=O)OC(C)(C)C)CC3)ccc2Oc2ccc(F)cc2F)c2cc[nH]c2c1=O [Example 136, tert-butyl 4-{[4-(2,4-difluorophenoxy)-3-(6-methyl-7-oxo-6,7-dihydro-1H-pyrrolo[2,3-c]pyridin-4-yl)benzoyl]amino}piperidine-1-carboxylate]
		295 nM				Cn1cc(-c2cc(S(C)(=O)=O)ccc2Oc2cc(C(F)(F)F)ccc2Cl)c2cc[nH]c2c1=O [Example 163, 4-{2-[2-chloro-5-(trifluoromethyl)phenoxy]-5-(methylsulfonyl)phenyl}-6-methyl-1,6-dihydro-7H-pyrrolo[2,3-c]pyridin-7-one]
25.8 nM	17.8 nM					Cn1cc(-c2cc(S(C)(=O)=O)ccc2Oc2cccc3c2CCC3=O)c2cc[nH]c2c1=O [Example 175, 6-methyl-4-{5-(methylsulfonyl)-2-[(1-oxo-2,3-dihydro-1H-inden-4-yl)oxy]phenyl}-1,6-dihydro-7H-pyrrolo[2,3-c]pyridin-7-one]
30.5 nM	22.4 nM					Cn1cc(-c2cc(S(C)(=O)=O)ccc2Oc2ccc3c(c2)CCC3=O)c2cc[nH]c2c1=O [Example 181, 6-methyl-4-{5-(methylsulfonyl)-2-[(1-oxo-2,3-dihydro-1H-inden-5-yl)oxy]phenyl}-1,6-dihydro-7H-pyrrolo[2,3-c]pyridin-7-one]
19 nM	9.7 nM					Cn1cc(-c2cc(S(C)(=O)=O)ccc2Oc2ccc3c(c2)C(=O)CC3)c2cc[nH]c2c1=O [Example 182, 6-methyl-4-{5-(methylsulfonyl)-2-[(3-oxo-2,3-dihydro-1H-inden-5-yl)oxy]phenyl}-1,6-dihydro-7H-pyrrolo[2,3-c]pyridin-7-one]
41.2 nM	19.8 nM					Cn1cc(-c2cc(S(C)(=O)=O)ccc2Oc2ccccc2C#N)c2cc[nH]c2c1=O [Example 183, 2-[2-(6-methyl-7-oxo-6,7-dihydro-1H-pyrrolo[2,3-c]pyridin-4-yl)-4-(methylsulfonyl)phenoxy]benzonitrile]
		78.8 nM				Cn1cc(-c2cc(S(C)(=O)=O)ccc2Oc2cccc(Cl)c2F)c2cc[nH]c2c1=O [Example 184, 4-[2-(3-chloro-2-fluorophenoxy)-5-(methylsulfonyl)phenyl]-6-methyl-1,6-dihydro-7H-pyrrolo[2,3-c]pyridin-7-one]
34.5 nM	12.2 nM					Cn1cc(-c2cc(S(C)(=O)=O)ccc2Oc2cccc3ccccc23)c2cc[nH]c2c1=O [Example 185, 6-methyl-4-[5-(methylsulfonyl)-2-(naphthalen-1-yloxy)phenyl]-1,6-dihydro-7H-pyrrolo[2,3-c]pyridin-7-one]
30.4 nM	23 nM			34 min	55 min	Cn1cc(-c2cc(S(C)(=O)=O)ccc2Oc2ccc(Cl)c(F)c2)c2cc[nH]c2c1=O [Example 189, 4-[2-(4-chloro-3-fluorophenoxy)-5-(methylsulfonyl)phenyl]-6-methyl-1,6-dihydro-7H-pyrrolo[2,3-c]pyridin-7-one]
5500 nM	1020 nM		1 min	13 min		Cn1cc(-c2ccccc2Cc2ccccc2)c2cc[nH]c2c1=O [Example 195, 4-(2-benzylphenyl)-6-methyl-1,6-dihydro-7H-pyrrolo[2,3-c]pyridin-7-one]
1100 nM	3000 nM					Cc1cccc(OCC2CC2)c1-c1cn(C)c(=O)c2[nH]ccc12 [Example 247, 4-[2-(cyclopropylmethoxy)-6-methylphenyl]-6-methyl-1,6-dihydro-7H-pyrrolo[2,3-c]pyridin-7-one]
125 nM	489 nM			> 120 min	25 min	Cc1c(NS(C)(=O)=O)ccc(OCC2CC2)c1-c1cn(C)c(=O)c2[nH]ccc12 [Example 262, N-[4-(cyclopropylmethoxy)-2-methyl-3-(6-methyl-7-oxo-6,7-dihydro-1H-pyrrolo[2,3-c]pyridin-4-yl)phenyl]methanesulfonamide]
526 nM	1130 nM					Cn1cc(-c2cc(C(F)(F)F)ccc2Oc2ccc(F)cc2F)c2cc[nH]c2c1=O [Example 275, 4-[2-(2,4-difluorophenoxy)-5-(trifluoromethyl)phenyl]-6-methyl-1,6-dihydro-7H-pyrrolo[2,3-c]pyridin-7-one]
